This passage reports EC50 results from patent US20060004012A1, “Compounds, pharmaceutical compositions and methods for use in treating metabolic disorders” (priority 2004, published 2006).

The target of this experiment is T1, human GPR40 (Homo sapiens, UniProt O14842).
T1 construct: expressed in transfected cells; host or cells: CHO cells, transiently transfected with Lipofectamine 2000 and co-transfected with an aequorin expression vector (Euroscreen)
The experiment is described as follows: Cell-based aequorin assay using human GPR40. To be noted: activation of human GPR40; CHO cells transfected with GPR40 and aequorin expression vectors; aequorin luminescence, area-under-curve 2-20 seconds; read-out: Relative EC50. The method, then:
A cell-based aequorin assay may be employed to characterize the modulatory activity of compounds on the GPR40 signaling pathway. In an exemplary assay, CHO cells are transfected in a 15 cm plated containing 14 million cells with 5 μg of GPR40 expression vector and 5 μg of Aequorin expression vector (Euroscreen) using Lipofectamine 2000 (Invitrogen). After 17-24 hours post-transfection, cells are washed with phosphate buffered saline (PBS) and detached from the tissue culture dish with 2 mL of trypsin (0.25%(w/v)). Trypsinization is halted with 28 mL of Hanks Buffered Salt Solution containing 20 mM Hepes (H/HBSS) and 0.01% fatty acid-free bovine serum albumin (BSA) or 0.625% fatty acid-free human serum albumin (HSA). Coelantrazine is added to 1 ug/mL and the cells are incubated for 2 hours at room temperature. Cells are gently mixed every 15 minutes. Compounds are dissolved in dimethyl sulfoxide for preparation of 10 mM stock solutions. Compounds are diluted in H/HBSS containing either 0.01% BSA or 0.625% HSA. Serial dilutions of the test compounds are prepared to determine dose response.
Aequorin luminescence measurements are made using an EG&G Berthold 96-well luminometer and the response is measured over a 20 second interval after cells and compounds were mixed. The area-under-curve from 2-20 seconds is plotted to determine dose reponse. The EC50 (effective concentration to reach 50% maximal response) is determined from the dose response plot. […]

T1 sequence (O14842 whole entry): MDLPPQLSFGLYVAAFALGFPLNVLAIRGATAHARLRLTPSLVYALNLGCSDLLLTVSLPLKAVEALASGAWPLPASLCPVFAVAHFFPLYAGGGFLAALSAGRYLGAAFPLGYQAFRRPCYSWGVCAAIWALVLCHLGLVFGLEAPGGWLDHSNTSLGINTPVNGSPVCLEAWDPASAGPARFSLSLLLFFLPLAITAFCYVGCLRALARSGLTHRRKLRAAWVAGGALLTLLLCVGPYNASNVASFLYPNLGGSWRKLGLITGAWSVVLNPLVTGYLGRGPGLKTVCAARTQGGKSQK

`O=C(O)CC(c1ccc(Cl)cc1)c1ccc(OCc2cccc(Oc3ccccc3)c2)cc1` (centres unmarked) [Compound 84.5]: the concentration giving a half-maximal response (EC50) was in the range of 100 to 1000 nM.
Under `CC#CC(CC(=O)NS(C)(=O)=O)c1ccc(OCc2ccc(OC)cc2)cc1` (centres unmarked) [Compound 81] stands 1000 to 10000 nM.
Under `Cc1cnc(C(CC(=O)O)c2ccc(OCc3cccc(-c4ccc(C(F)(F)F)cc4)c3)cc2)s1` (centres unmarked) [Compound 70.1] stands 1000 to 10000 nM.
Under `CC#CC(CC(=O)O)c1ccc(OCc2cccc(-c3ccccn3)c2)cc1` (centres unmarked) [Compound 10.8] stands 100 to 1000 nM; under `CC#CC(CC(=O)O)c1ccc(OCc2cccc(-c3ccncc3)c2)cc1` (centres unmarked) [Compound 10.10], 100 to 1000 nM; under `CC#CC(CC(=O)O)c1ccc(OCc2cccc(-c3cccc(C(F)(F)F)c3)c2)cc1` (centres unmarked) [Compound 6.9], 10 to 100 nM.
For the compound `C=CCC(CC(=O)O)c1ccc(OCc2ccc(OC)cc2)cc1` (centres unmarked) [Compound 34.4], the 50% effective concentration (EC50) lay in the range of 1000 to 10000 nM.
With `CC#C[C@@H](CC(=O)O)c1ccc(OCc2sc(-c3ccc(C)cc3)nc2C)cc1` [Compound 3, (S)-3-[4-(4-Methyl-2-p-tolyl-thiazol-5-ylmethoxy)-phenyl]-hex-4-ynoic acid], the 50% effective concentration (EC50) is under 10 nM.
Regarding `O=C(O)CC(c1ccc(OCc2cccc(-c3ccc(C(F)(F)F)cc3)c2)cc1)c1nn[nH]n1` (centres unmarked) [Compound 88.7], the EC50 was in the range of 1000 to 10000 nM.
Turning to `COc1cccc(C(CC(=O)O)c2ccc(OCc3cccc(Oc4ccccc4)c3)cc2)c1` (centres unmarked) [Compound 84.8], the concentration giving a half-maximal response (EC50) fell in the range of 100 to 1000 nM.
On to `Cc1ccccc1COc1ccc(C(C#CC(F)(F)F)CC(=O)O)cc1` (centres unmarked) [Compound 87], for which the EC50 was over 10000 nM.
Next, `CC#C[C@@H](CC(=O)O)c1ccc(OCc2ccc(OC)cc2)cc1` [Compound 39.7, (3S)-3-[4-(4-Methoxy-benzyloxy)-phenyl]-hex-4-ynoic acid]: 10 to 100 nM; `CC(C)(C)OC(=O)N[C@@H](CC(=O)O)c1ccc(OCc2cccc(Oc3ccc(F)cc3)c2)cc1` [Compound 42.11, (S)-3-tert-Butoxycarbonylamino-3-{4-[3-(4-fluoro-phenoxy)-benzyloxy]-phenyl}-propionic acid]: 100 to 1000 nM.
Under `CC#CC(CC(=O)O)c1ccc(NC(=O)c2cccc(OC)c2)cc1` (centres unmarked) [Compound 74] stands 1000 to 10000 nM; under `CC#CC(CC(=O)O)c1ccc(OCc2ccc(-n3cncn3)cc2)cc1` (centres unmarked) [Compound 79], 1000 to 10000 nM; under `Cc1ccccc1COc1ccc(C(C#CC(F)(F)F)CC(=O)O)cc1` (centres unmarked) [Compound 75], over 10000 nM.
In the case of `CC#CC(CC(=O)O)c1ccc(OCc2csc(-c3ccc(C)cc3)n2)cc1` (centres unmarked) [Compound 8.5], the EC50 was 10 to 100 nM.
As to `CC#CC(CC(=O)O)c1ccc(OCc2cccc(-c3ccc(OCC)cc3)c2)cc1` (centres unmarked) [Compound 6.3], the EC50 was in the range of 10 to 100 nM.
Under `O=C(O)CN(c1ccccc1)c1ccc(NCc2cccc(Oc3ccccc3)c2)cc1` [Compound 82.3] stands under 10 nM.
As for `CC#CC(Cc1nnn[nH]1)c1ccc(OCc2ccccc2C)cc1` (centres unmarked) [Compound 23, 5-{2-[4-(2-Methyl-benzyloxy)-phenyl]-pent-3-ynyl}-1H-tetrazole], the EC50 was in the range of 1000 to 10000 nM.
For `O=C(O)C[C@H](NC(=O)Cc1ccccc1)c1ccc(OCc2cccc(Oc3ccc(F)cc3)c2)cc1` [Compound 88.4], the EC50 was over 10000 nM.
Consider `O=C(O)CC(c1ccc(OCc2cccc(-c3ccc(C(F)(F)F)cc3)c2)cc1)c1nccs1` (centres unmarked) [Compound 56], for which the EC50 lay within 100 to 1000 nM.
With `CC#CC(CC(=O)O)c1ccc(OCc2ccc(S(=O)(=O)c3ccccc3)cc2)cc1` (centres unmarked) [Compound 10.5], the EC50 is 100 to 1000 nM.
Under `CC#CC(CC(=O)O)c1ccc(OCc2cccc(-c3ccccc3C(F)(F)F)c2)cc1` (centres unmarked) [Compound 6.8] stands 10 to 100 nM.
Regarding `CC#CC(CC(=O)O)c1ccc(OCc2cc(-c3ccccc3)no2)cc1` (centres unmarked) [Compound 77], the half-maximal effective concentration (EC50) lay in the range of 100 to 1000 nM.
Next, `CC#CC(CC(=O)O)c1ccc(OCc2nc(-c3ccc(C(F)(F)F)cc3)oc2C)cc1` (centres unmarked) [Compound 18, 3-{4-[5-Methyl-2-(4-trifluoromethyl-phenyl)-oxazol-4-ylmethoxy]-phenyl}-hex-4-ynoic acid]: 10 to 100 nM.
Under `CC#C[C@@H](CC(=O)O)c1ccc(OCc2csc(-c3ccc(C(F)(F)F)cc3)n2)cc1` [Compound 80] stands under 10 nM; under `CC#CC(CC(=O)O)c1ccc(OCc2cn(-c3ccc(Cl)cc3)nn2)cc1` (centres unmarked) [Compound 76], 1000 to 10000 nM; under `CC#CC(CC(=O)O)c1ccc(OCc2cnn(-c3ccc(F)cc3)c2C)cc1` (centres unmarked) [Compound 11.1], 100 to 1000 nM.
Turning to `CN(C)[C@@H](CC(=O)O)c1ccc(OCc2cccc(Oc3ccc(F)cc3)c2)cc1` (stereo in doubt) [Compound 42.14, 3-Dimethylamino-3-{4-[3-(4-fluoro-phenoxy)-benzyloxy]-phenyl}-propionic acid], the 50% effective concentration (EC50) fell in the range of 100 to 1000 nM.
Next, `CC#CC(CC(=O)O)c1ccc(N(Cc2cccc(OC)c2)Cc2cccc(OC)c2)cc1` (centres unmarked) [Compound 36.2]: 100 to 1000 nM.
Consider `CCCCOc1ccc(C)cc1-c1ccc(COc2ccc(C(CC(=O)O)c3ccnn3C)cc2)cc1` (centres unmarked) [Compound 66.5], for which the EC50 is 100 to 1000 nM.
Next, `O=C(O)CC(c1ccccc1)c1ccc(OCc2cccc(Oc3ccccc3)c2)cc1` (centres unmarked) [Compound 84.1]: 10 to 100 nM; `O=C(O)CC(c1ccc(F)cc1)c1ccc(OCc2cccc(-c3ccc(C(F)(F)F)cc3)c2)cc1` (centres unmarked) [Compound 46.1, 3-(4-fluorophenyl)-3-[4-(4′-trifluoromethyl-biphenyl-3-ylmethoxy)-phenyl]-propionic acid]: 100 to 1000 nM.
Next, `CC#CC(CC(=O)O)c1ccc(OCc2sc(-c3ccc(C)cc3)nc2C)cc1` (centres unmarked) [Compound 9.2]: under 10 nM.
In the case of `COc1cccc(CNc2ccc(N(CC(=O)O)c3ccccc3)cc2)c1` [Compound 82.2], the concentration giving a half-maximal response (EC50) is under 10 nM.
As to `CC#CC(CC(=O)O)c1ccc(OCc2ccc(CCc3ccccc3)cc2)cc1` (centres unmarked) [Compound 10.7], the EC50 was in the range of 100 to 1000 nM.
In the case of `O=C(O)CC(c1ccc(OCc2cccc(-c3ccc(C(F)(F)F)cc3)c2)cc1)n1cccn1` (centres unmarked) [Compound 62.3], the concentration giving a half-maximal response (EC50) fell in the range of 10 to 100 nM.
For `CC#C[C@@H](CC(=O)O)c1ccc(OCc2ccccc2C)cc1` (single isomer, unassigned) [Compound 15], the EC50 was 10 to 100 nM.
Under `CCC(CC(=O)O)c1ccc(OCc2ccc(OC)cc2)cc1` (centres unmarked) [Compound 14.3] stands 1000 to 10000 nM.
Under `CC#CC(CC(=O)O)c1ccc(NCc2cccc(OC)c2)cc1` (centres unmarked) [Compound 36.1] stands 100 to 1000 nM; under `CC#C[C@@H](CC(=O)O)c1ccc(OCc2cc(-c3ccccc3)oc2C)cc1` [Compound 5, 3-[4-(2-Methyl-5-phenyl-furan-3-ylmethoxy)-phenyl]-hex-4-ynoic acid], 10 to 100 nM.
With `CC#CC(CC(=O)O)c1ccc(OCc2csc(-c3ccccc3)n2)cc1` (centres unmarked) [Compound 8.2], the concentration giving a half-maximal response (EC50) lay within 10 to 100 nM.
For `O=C(O)CC(c1ccc(OCc2cccc(Oc3ccccc3)c2)cc1)c1cccc(C(F)(F)F)c1` (centres unmarked) [Compound 85.2], the half-maximal effective concentration (EC50) was 100 to 1000 nM.
On to `CC(=O)N[C@@H](CC(=O)O)c1ccc(OCc2cccc(Oc3ccc(F)cc3)c2)cc1` [Compound 83], for which the EC50 was 1000 to 10000 nM.
In the case of `CC#CC(CC(=O)O)c1ccc(OCc2ccc(Cc3ccccc3)cc2)cc1` (centres unmarked) [Compound 10.6], the EC50 fell in the range of 10 to 100 nM.
Regarding `O=C(O)CN(c1ccccc1)c1ccc(NC(=O)Cc2ccccc2)cc1` [Compound 82.4], the EC50 lay in the range of 10 to 100 nM.
Regarding `CC#CC(CC(=O)O)c1ccc(OCc2ccc(-c3ccc(C#N)cc3)cc2)cc1` (centres unmarked) [Compound 7.15], the half-maximal effective concentration (EC50) is 10 to 100 nM.
As to `CC#CC(CC(=O)Nc1nnn[nH]1)c1ccc(OCc2ccc(OC)cc2)cc1` (centres unmarked) [Compound 25.1], the EC50 was 1000 to 10000 nM.
Under `O=C(O)CC(c1ccc(OCc2cccc(Oc3ccccc3)c2)cc1)c1cccc(Cl)c1` (centres unmarked) [Compound 84.6] stands 100 to 1000 nM.
Under `NC(=O)C(CC(=O)O)c1ccc(OCc2cccc(-c3ccc(C(F)(F)F)cc3)c2)cc1` (centres unmarked) [Compound 90] stands 1000 to 10000 nM.
Under `O=C(O)C[C@H](NC(=O)CCc1ccccc1)c1ccc(OCc2cccc(Oc3ccc(F)cc3)c2)cc1` [Compound 88.6] stands over 10000 nM; under `CC#CC(CC(=O)O)c1ccc(OCc2ccc(-c3cccc(OCC)c3)cc2)cc1` (centres unmarked) [Compound 7.8], 100 to 1000 nM.
Turning to `CC#CC(CC(=O)O)c1ccc(OCc2cccc(N(CC)c3ccccc3)c2)cc1` (centres unmarked) [Compound 10.2], the EC50 was in the range of 10 to 100 nM.
Next, `COc1ccc(COc2ccc(C(C=C(C)C)CC(=O)O)cc2)cc1` (centres unmarked) [Compound 34.5]: 100 to 1000 nM.
Under `COc1ccc(C(CC(=O)O)c2ccc(OCc3cccc(Oc4ccccc4)c3)cc2)cc1` (centres unmarked) [Compound 84.7] stands 100 to 1000 nM; under `O=C(O)CC(c1ccc(OCc2cccc(Oc3ccccc3)c2)cc1)c1ccc(C(F)(F)F)cc1` (centres unmarked) [Compound 85.1], 1000 to 10000 nM.
Regarding `CC#CC(CC(=O)Nc1nccs1)c1ccc(OCc2ccc(OC)cc2)cc1` (centres unmarked) [Compound 24, 3-[4-(4-Methoxy-benzyloxy)-phenyl]-hex-4-ynoic acid thiazol-2-ylamide], the EC50 is 100 to 1000 nM.
On to `CC#CC(CC(=O)O)c1ccc(N(C)Cc2cccc(OC)c2)cc1` (centres unmarked) [Compound 73], for which the concentration giving a half-maximal response (EC50) was in the range of 1000 to 10000 nM.

For orientation: EC50 means the concentration that produces a half-maximal response.
